Experimental data reported in paper PMC8303988, “Cholate Disrupts Regulatory Functions of Cytochrome c Oxidase” (Cells, 2021).

Tested on: T1, cholate-CytOx; isolated cytochrome c oxidase from bovine heart
T1 construct: gene MT-CO1; with Cytochrome c oxidase subunit 1; Cytochrome c oxidase subunit 2; Cytochrome c oxidase subunit 3; Cytochrome c oxidase subunit 5A, mitochondrial; Cytochrome c oxidase subunit 5B, mitochondrial; Cytochrome c oxidase subunit 6A2, mitochondrial; Cytochrome c oxidase subunit 6B1; Cytochrome c oxidase subunit 6C; Cytochrome c oxidase subunit 7A1, mitochondrial; Cytochrome c oxidase subunit 7B, mitochondrial; Cytochrome c oxidase subunit 7C, mitochondrial; Cytochrome c oxidase subunit 8B, mitochondrial
Test: UV/VIS absorption spectroscopy, displacement of bound cholate by ADP
Assay type: binding, Bos taurus
Conditions: 0 °C, pH 7.4; cholate bound during purification; nucleotide sites

## C[C@H](CCC(=O)O)[C@H]1CC[C@H]2[C@@H]3[C@H](O)C[C@@H]4C[C@H](O)CC[C@]4(C)[C@H]3C[C@H](O)[C@]12C [cholate]
  UV/VIS absorption spectroscopy, displacement of bound cholate by ADP: exchange of cholate by ADP is a very slow process with a half-time of about
